# Measurements from patent US9802944B2, “Bicyclic compounds as autotaxin (ATX) and lysophosphatidic acid (LPA) production inhibitors” (Hoffmann-La Roche Inc., priority 2014, dated 2017).
# Molecular target: ATX (human His-tagged) (Homo sapiens (Human), UniProt Q13822)
# Assay: Human ATX enzyme inhibition assay (fluorescence quenching, MR121 substrate)
# Type: biochemical
# Conditions: 30 nM ATX, 1 μM MR121 substrate, 30° C., pH 8.0
# Procedure: Production of Human Full Length ATX, with and without his Tag
# Autotaxin (ATX-ENPP2) Cloning:
# cDNA was prepared from commercial human hematopoietic cells total RNA and used as template in overlapping PCR to generate a full length human ENPP2 ORF with or without a 3′-6×His tag. These full length inserts were cloned into the pcDNA3.1V5-His TOPO (Invitrogen) vector. The DNA sequences of several single clones were verified. The DNA from a correct full length clone was used to transfect Hek293 cells for verification of protein expression. […] ATX Fermentation: Recombinant protein was produced by large-scale transient transfection in 20 L controlled stirred tank bioreactors (Sartorius). During cell growth and transfection, temperature, stirrer speed, pH and dissolved oxygen concentration were maintained at 37° C., 120 rpm, 7.1 and 30% DO, respectively. […] Expression was analyzed by Western Blot, enzymatic assay and/or analytical IMAC chromatography. After cooling the cell suspension to 4° C. in a flow-through heat exchanger, cell separation and sterile filtration of supernatant was performed by filtration through Zeta Plus 60M02 E16 (Cuno) and Sartopore 2 XLG (Sartorius) filter units. The supernatant was stored at 4° C. prior to purification. ATX Purification: 20 liter of culture supernatant were conditioned for ultrafiltration by adding Brij 35 to a final concentration of 0.02% and by adjusting the pH to 7.0 using 1 M HCl. Then the supernatant was first microfiltered through a 0.2 μm Ultran-Pilot Open Channel PES filter (Whatman) and afterwards concentrated to 1 liter through an Ultran-Pilot Screen Channel PES filter with 30 kDa MWCO (Whatman). Prior to IMAC chromatography, NiSO4 was added to a final concentration of 1 mM. The cleared supernatant was then applied to a HisTrap column (GE Healthcare) previously equilibrated in 50 mM Na2HPO4 pH 7.0, 0.5 M NaCl, 10% glycerol, 0.3% CHAPS, 0.02% NaN3. The column was washed stepwise with the same buffer containing 20 mM, 40 mM and 50 mM imidazole, respectively. The protein was subsequently eluted using a linear gradient to 0.5 M imidazole in 15 column volumes. ATX containing fractions were pooled and concentrated using an Amicon cell equipped with a 30 kDa PES filter membrane. The protein was further purified by size exclusion chromatography on Superdex S-200 prep grade (XK 26/100) (GE Healthcare) in 20 mM BICINE pH 8.5, 0.15 M NaCl, 10% glycerol, 0.3% CHAPS, 0.02% NaN3. […] The protein was stored at −80° C. […] 10 μL of MR121 substrate solution was added (1 μM final concentration), mixed 30 times and then incubated for 15 minutes at 30° C.
row,IC50 [nM],Structure (SMILES)
1,9,"NS(=O)(=O)c1ccc(C(=O)N2C[C@H]3CN(C(=O)c4cc(OCC5CCCOC5)nc(C5CC5)c4)C[C@@H]3C2)nc1 (stereo partly drawn) [Example 2.17, 6-((3aR,6aR)-5-(2-cyclopropyl-6-((tetrahydro-2H-pyran-3-yl)methoxy)isonicotinoyl)octahydropyrrolo[3,4-c]pyrrole-2-carbonyl)pyridine-3-sulfonamide]"
2,10,"O=C(c1cc(OCC2CCOCC2)nc(C2CC2)c1)N1C[C@@H]2CN(Cc3ccc4[nH]nnc4c3)C[C@H]2C1 [Example 2.18, ((3aS,6aS)-5-((1H-benzo[d][1,2,3]triazol-5-yl)methyl)hexahydropyrrolo[3,4-c]pyrrol-2(1H)-yl)(2-cyclopropyl-6-((tetrahydro-2H-pyran-4-yl)methoxy)pyridin-4-yl)methanone]"
3,10,"O=C(c1cc(OCC2CCCOC2)nc(C2CC2)c1)N1C[C@@H]2CN(Cc3ccc4[nH]nnc4c3)C[C@H]2C1 (stereo partly drawn) [Example 2.19, ((3aS,6aS)-5-((1H-benzo[d][1,2,3]triazol-5-yl)methyl)hexahydropyrrolo[3,4-c]pyrrol-2(1H)-yl)(2-cyclopropyl-6-((tetrahydro-2H-pyran-3-yl)methoxy)pyridin-4-yl)methanone]"
4,40,"O=C(c1cc(Cl)nc(OCC2CCOCC2)c1)N1C[C@@H]2CN(C(=O)c3ccc4[nH]nnc4c3)C[C@H]2C1 [Example 2.20, ((3aS,6aS)-5-(1H-benzo[d][1,2,3]triazole-5-carbonyl)hexahydropyrrolo[3,4-c]pyrrol-2(1H)-yl)(2-chloro-6-((tetrahydro-2H-pyran-4-yl)methoxy)pyridin-4-yl)methanone]"
5,10,"O=C(c1ccc2[nH]nnc2c1)N1CC[C@@H]2CN(C(=O)c3cc(OCC4CCOCC4)nc(C4CC4)c3)C[C@@H]2CC1 [Example 2.22, ((3aR,8aS)-6-(1H-benzo[d][1,2,3]triazole-5-carbonyl)octahydropyrrolo[3,4-d]azepin-2(1H)-yl)(2-cyclopropyl-6-((tetrahydro-2H-pyran-4-yl)methoxy)pyridin-4-yl)methanone]"
6,5,"CN(C)c1cc(C(=O)N2C[C@@H]3CN(C(=O)c4ccc5[nH]nnc5c4)C[C@H]3C2)cc(OCC2CCOCC2)n1 [Example 2.23, ((3aS,6aS)-5-(1H-benzo[d][1,2,3]triazole-5-carbonyl)hexahydropyrrolo[3,4-c]pyrrol-2(1H)-yl)(2-(dimethylamino)-6-((tetrahydro-2H-pyran-4-yl)methoxy)pyridin-4-yl)methanone]"
7,11,"O=C(c1cc(OCC2CCOCC2)nc(C2CC2)c1)N1C[C@@H]2CN(Cc3ccc4[nH]c(=O)oc4c3)C[C@H]2C1 [Example 2.24, 6-(((3aS,6aS)-5-(2-cyclopropyl-6-((tetrahydro-2H-pyran-4-yl)methoxy)isonicotinoyl)hexahydropyrrolo[3,4-c]pyrrol-2(1H)-yl)methyl)benzo[d]oxazol-2(3H)-one]"
8,17,"CN(C)c1cc(C(=O)N2C[C@@H]3CN(C(=O)[C@@H]4CCc5[nH]nnc5C4)C[C@H]3C2)cc(OCC2CCOCC2)n1 [Example 2.25, ((3aS,6aS)-5-(2-(dimethylamino)-6-((tetrahydro-2H-pyran-4-yl)methoxy)isonicotinoyl)hexahydropyrrolo[3,4-c]pyrrol-2(1H)-yl)((R)-4,5,6,7-tetrahydro-1H-benzo[d][1,2,3]triazol-5-yl)methanone]"
9,14,"O=C(c1cc(OCC2CCOCC2)nc(C2CC2)c1)N1C[C@@H]2CN(C(=O)c3ccc4[nH]nnc4c3)C[C@@H]2C1 [Example 2.26, ((3aR,6aS)-5-(1H-benzo[d][1,2,3]triazole-5-carbonyl)hexahydropyrrolo[3,4-c]pyrrol-2(1H)-yl)(2-cyclopropyl-6-((tetrahydro-2H-pyran-4-yl)methoxy)pyridin-4-yl)methanone]"
10,7,"O=C(c1cc(OCC2CCOCC2)cc(C2CC2)c1)N1CC[C@@H]2CN(C(=O)[C@@H]3CCc4[nH]nnc4C3)C[C@@H]2CC1 [Example 2.28, ((3aR,8aS)-6-(3-cyclopropyl-5-((tetrahydro-2H-pyran-4-yl)methoxy)benzoyl)octahydropyrrolo[3,4-d]azepin-2(1H)-yl)((R)-4,5,6,7-tetrahydro-1H-benzo[d][1,2,3]triazol-5-yl)methanone]"
11,7,"O=C(c1cc(OCC2CCOCC2)cc(C2CC2)c1)N1C[C@@H]2CN(C(=O)c3ccc4[nH]nnc4c3)C[C@H]2C1 [Example 2.29, ((3aS,6aS)-5-(1H-benzo[d][1,2,3]triazole-5-carbonyl)hexahydropyrrolo[3,4-c]pyrrol-2(1H)-yl)(3-cyclopropyl-5-((tetrahydro-2H-pyran-4-yl)methoxy)phenyl)methanone]"
12,25,"O=C(c1cnc(OC2CCOCC2)c(C2CC2)c1)N1C[C@@H]2CN(C(=O)c3ccc4[nH]c(=O)oc4c3)C[C@H]2C1 [Example 3, 6-((3aS,6aS)-5-(5-Cyclopropyl-6-(tetrahydro-2H-pyran-4-yloxy)nicotinoyl)octahydropyrrolo[3,4-c]pyrrole-2-carbonyl)benzo[d]oxazol-2(3H)-one]"
13,12,"O=C(c1cc(OCC2CCOCC2)nc(C2CC2)c1)N1C[C@@H]2CN(C(=O)c3ccc4[nH]c(=O)oc4c3)C[C@H]2C1 [Example 3.01, 6-((3aS,6aS)-5-(2-cyclopropyl-6-((tetrahydro-2H-pyran-4-yl)methoxy)isonicotinoyl)octahydropyrrolo[3,4-c]pyrrole-2-carbonyl)benzo[d]oxazol-2(3H)-one]"
14,25,"O=C(c1cc(OCC2CCOCC2)nc(C2CC2)c1)N1CC[C@@H]2CN(C(=O)c3ccc4[nH]c(=O)oc4c3)C[C@@H]2CC1 [Example 3.02, 6-((3aR,8aS)-6-(2-cyclopropyl-6-((tetrahydro-2H-pyran-4-yl)methoxy)isonicotinoyl)decahydropyrrolo[3,4-d]azepine-2-carbonyl)benzo[d]oxazol-2(3H)-one]"
15,19,"O=C(c1cnc(OC2CCOCC2)c(C2CC2)c1)N1C[C@@H]2CN(Cc3ccc4[nH]c(=O)oc4c3)C[C@H]2C1 [Example 4, 6-(((3aS,6aS)-5-(5-Cyclopropyl-6-(tetrahydro-2H-pyran-4-yloxy)nicotinoyl)hexahydropyrrolo[3,4-c]pyrrol-2(1H)-yl)methyl)benzo[d]oxazol-2(3H)-one]"
16,39,"O=C(c1cnc(OC2CCOCC2)c(C2CC2)c1)N1C[C@@H]2CN(Cc3ccc4[nH]nnc4c3)C[C@H]2C1 [Example 4.01, ((3aS,6aS)-5-((1H-benzo[d][1,2,3]triazol-5-yl)methyl)hexahydropyrrolo[3,4-c]pyrrol-2(1H)-yl)(5-cyclopropyl-6-(tetrahydro-2H-pyran-4-yloxy)pyridin-3-yl)methanone]"
17,6,"O=C(OCc1c[nH]nn1)N1C[C@H]2CCN(C(=O)c3cc(OCC4CCOCC4)nc(C4CC4)c3)CC[C@H]2C1 [Example 7, 1H-Triazol-4-ylmethyl (3aS,8aR)-6-[2-cyclopropyl-6-(oxan-4-ylmethoxy)pyridine-4-carbonyl]-1,3,3a,4,5,7,8,8a-octahydropyrrolo[3,4-d]azepine-2-carboxylate]"
